According to patent US11517581B2, “Zika virus protease inhibitors and methods of use thereof” (priority 2017, dated 2022):
Converted amounts (≈) assume the structure as drawn. “Also recorded” adds a separate entry of the source.

What was measured:
[1] = test system: ZIKV (Puerto Rico strain PRVABC59); assay: Viral load reduction assay (qRT-PCR) in Vero cells; type: cell-based, Zika virus
Description: Viral load reduction assay and plaque reduction assay was performed for the evaluation of antiviral activity. Briefly, ZIKV-infected Vero cells (MOI=0.05) were treated with different concentrations of drugs or dimethyl sulfoxide (DMSO) control, cell culture supernatants (Vero and Huh-7) were collected at 48 hours post-infection, followed by total nucleic acid extraction and quantitative reverse transcription-PCR (qRT-PCR) as previously described with modifications (Chan et al., 2013; Chan et al., 2016b; Chan et al., 2017a). The IC50 was calculated using Sigma plot (SPSS) in an Excel add-in ED50V10. The viral load reduction assay experiments were performed in triplicate and repeated twice for confirmation.

ZIKV [2] = assay: Time-of-drug-addition assay in Vero cells; type: cell-based, Zika virus
Description: Briefly, Vero cells were seeded in 24-well plates (2×10^5 cells/well). The cells were inoculated with ZIKV (MOI=2) and then incubated for 1 h for virus internalization. The viral inoculum was then removed and the cells were washed twice with PBS. […] At 18 hpi, the cell culture supernatant of each time point experiment was collected for viral load measurement using qRT-PCR.

ZIKV [3] = assay: Dexamethasone-immunosuppressed mouse model of disseminated ZIKV infection; type: in vivo, BALB/c mice
Description: Approval was obtained from the Committee on the Use of Live Animals in Teaching and Research of The University of Hong Kong. […] Phosphate-buffered saline (PBS) was used to dilute the virus stocks to the desired concentration, and inocula were back-titrated to verify the dose given. On the day of virus inoculation, a dose of the virus equivalent to 6×10^6 TCID50 (3.24×10^6 plaque forming units) in […] of PBS was inoculated via the intraperitoneal route into mice under ketamine (100 mg/kg) and xylazine (10 mg/kg) anesthesia. Mice in the negative-control groups were injected with the same volume of PBS. Mice were monitored three times each day for clinical signs of disease and a numerical score was assigned at each observation as previously described (Chan et al., 2016c). Three mice per group were sacrificed at 5 dpi for virological, histological, and immunohistochemistry analyses. The remaining mice were sacrificed at 14 dpi or euthanized when there was ≥20% weight loss or ≥10% weight loss with ≥1 clinical sign. Samples of major organs were collected at necropsy for virological, histological, and immunohistochemical analyzes as we previously described (Chan et al., 2016c. Chan et al., 2017b). Blood samples were also collected for RNA extraction and qRT-PCR analysis.

[4] = test system: ZIKV (Puerto Rico strain PRVABC59) in BALB/c mice; assay: In vivo treatment of dexamethasone-immunosuppressed mice with disseminated ZIKV infection; set-up: species or system mouse (BALB/c); Zika virus; conditions: 100 mg/kg q12 h sc
Description: Phosphate-buffered saline (PBS) was used to dilute the virus stocks to the desired concentration, and inocula were back-titrated to verify the dose given. On the day of virus inoculation, a dose of the virus equivalent to 6×10^6 TCID50 (3.24×10^6 plaque forming units) in 2000 of PBS was inoculated via the intraperitoneal route into mice under ketamine (100 mg/kg) and xylazine (10 mg/kg) anesthesia. Mice in the negative-control groups were injected with the same volume of PBS. Mice were monitored three times each day for clinical signs of disease and a numerical score was assigned at each observation as previously described (Chan et al., 2016c). Three mice per group were sacrificed at 5 dpi for virological, histological, and immunohistochemistry analyses. The remaining mice were sacrificed at 14 dpi or euthanized when there was ≥20% weight loss or ≥10% weight loss with ≥1 clinical sign. Samples of major organs were collected at necropsy for virological, histological, and immunohistochemical analyzes as we previously described (Chan et al., 2016c. Chan et al., 2017b). Blood samples were also collected for RNA extraction and qRT-PCR analysis.
For immunohistochemical analysis, each organ was entirely embedded in one paraffin block, and one full-face paraffin section at the maximum diameter of each organ was examined per block.

[5] = human; cited from earlier work
[6] = test system: ZIKV (Puerto Rico strain PRVABC59); assay: Viral load reduction assay (qRT-PCR) in Huh-7 cells; type: cell-based; conditions: Zika virus, 0.05 MOI, 48 hours post-infection, supernatant qRT-PCR
Description: A clinical isolate of ZIKV (Puerto Rico strain PRVABC59) obtained from a patient in the recent South American epidemic was kindly provided by Brandy Russell and Barbara Johnson, Centers for Disease Control and Prevention, USA. The virus was cultured and titrated as we previously described with slight modifications (Chan et al., 2016b; Zhou et al., 2014). The virus was amplified by three additional passages in Vero cells (ATCC) in minimum essential medium (MEM) supplemented with 1% fetal bovine serum (FBS, Gibco™, Life Technologies Corporation, Massachusetts, USA) and 100 units/ml penicillin plus 100 μg/ml streptomycin to make working stocks of the virus (4×10^6 50% tissue culture infectious dose (TCID50)/ml). For virus titration, aliquots of ZIKV were applied on confluent Vero cells in 96-well plates for the TCID50 assay as was previously described with slight modifications (Chan et al., 2016b; Zhou et al., 2014). Briefly, serial 10-fold dilutions of ZIKV were inoculated in a Vero cell monolayer in quadruplicate and cultured in penicillin/streptomycin-supplemented MEM and 1% FBS. […] Viral titer was calculated using the Reed and Munch endpoint method. One TCID50 was interpreted as the amount of virus that causes cytopathic effect in 50% of inoculated wells.

ZIKV [7] = assay: Plaque reduction assay in Vero cells; type: cell-based, Zika virus
Description: Plaque reduction assay was performed as we previously described with slight modifications (Chan et al., 2017a). Briefly, Vero cells were seeded at 2×10^5 cells/well in 24-well tissue culture plates on the day before carrying out the assay. After 24 h of incubation, 20-40 plaque-forming units (PFU) of ZIKV were added to the cell monolayer with or without the addition of drug compounds and the plates were further incubated for 1 h at 37° C. in 5% CO2 before removal of unbound viral particles by aspiration of the media and washing once with MEM. Monolayers were then overlaid with media containing 1% low melting agarose (Cambrex Corporation, New Jersey, USA) in MEM and appropriate concentrations of drug compounds, inverted and incubated as above for another 96 h. The wells were then fixed with 10% formaldehyde (BDH, Merck, Darmstadt, Germany) overnight. After removal of the agarose plugs, the monolayers were stained with 0.7% crystal violet (BDH, Merck) and the plaques were counted. The percentage of plaque inhibition relative to the control (i.e. without the addition of compound) wells were determined for each drug compound concentration.

ZIKV [8] = assay: MTT-based CPE inhibition assay in Vero cells; type: cell-based; conditions: Zika virus, 144 h, MOI 0.0002, 6 days
Description: (§1) Briefly, Vero or Huh-7 cells (4×10^4 cells/well) were incubated with different concentrations of individual drug for 24 h, followed by the addition of 10 μl/well of 5 mg/ml MTT substrate. The monolayers were incubated as above for 4 h (away from light). Finally, 100 μl of 10% sodium dodecyl sulfate (SDS) with 0.01M HCl was added and further incubated at 37° C. with 5% CO2 overnight. […] Briefly, the drug compounds were diluted with serum-free MEM and added to confluent Vero cells in 96-well culture plates (4×10^4 cells/well) in triplicate for 2 h at 37° C. After incubation, the drug-containing media were removed, and ZIKV (multiplicity of infection, MOI=0.0002) was added together with fresh drug-compound media to each well. Following 1 h of adsorption at 37° C., the virus-compound mixture was removed and the cells were washed twice with MEM to remove unbound virus. Subsequently, media with antiviral compounds were added to the cells for further incubation for 6 days at 37° C. in a 5% CO2 humidified environment. CPE was examined by inverted light microscopy (Chan et al., 2016b). Thereafter, MTT substrate and SDS-HCl were added sequentially as mentioned above. The half maximal inhibitory concentration (IC50) and CC50 were calculated using Sigma plot (SPSS) in an Excel add-in ED50V10.

[9] = Cell viability (MTT) assay in Huh-7 cells; type: cell-based; conditions: human
Description: as §1

What does the source list for `CO[C@@H]1[C@@H](OC(N)=O)[C@@H](O)[C@H](Oc2ccc3c(O)c(NC(=O)c4ccc(O)c(CC=C(C)C)c4)c(=O)oc3c2C)OC1(C)C` [Novobiocin]?
IC50 ([1]; Zika virus, Vero, 48 h, read-out: IC50, viral load reduction assay): 26.1 ± 0.33 µg/mL (≈ 42.6 µM); Concentration at which mean virus titer was significantly reduced (P<0.05) ([1]; viral load reduction assay): ≥ 25.00 µg/mL; Viral loads at 18 hpi, drug added during virus replication stage (ZIKV [2]; 100 μg/ml added at 0, 3, 6, 9, or 12 hpi, MOI 2, P<0.05): significantly reduced; Inhibitory activity, drug added at adsorption or release stage (ZIKV [2]; 100 μg/ml at 0-1 hpi or at 14 hpi): No significant inhibitory activity; ZIKV attachment, cells pretreated with drug (ZIKV [2]; 100 μg/ml, −1 to 0 hpi): not affected; Survival (ZIKV [3]; 100 mg/kg q12 h sc 1-13 dpi, vs 0% untreated control mice, P<0.05): 100%; ZIKV-NS1 antigen expression in organ tissues (immunohistochemical staining) (ZIKV [3]; 5 dpi): minimal; also recorded: rarely detected; Mean viral loads in the blood and the major organ tissues (ZIKV [3]; 5 dpi and 14 dpi, incl. testis and kidney): significantly reduced; Weight loss after dexamethasone withdrawal (ZIKV [3]; ZIKV-inoculated, 100 mg/kg q12 h sc): ≤ 8%; Clinical symptoms after dexamethasone withdrawal (ZIKV [3]; ZIKV-inoculated, 100 mg/kg q12 h sc, recovered at 13-14 dpi): minimal clinical symptoms; Inflammatory infiltrates in organ tissues (H&E) (ZIKV [3]; after dexamethasone withdrawal, 12 or 14 dpi): little inflammatory infiltrate; also recorded: no or mild inflammatory infiltrate, and preserved tissue architecture; also recorded: minimal inflammatory infiltrates; Reduction of mean viral loads in blood and most major organ tissues vs untreated control mice (ZIKV [3]; at both 5 dpi and 14 dpi, qRT-PCR normalized by β-actin): ≥ 2 log; ZIKV NS1 antigen expression in organ tissues (brain, testis, kidney) ([4]; 5 dpi): minimal ZIKV NS1 antigen expression; Inflammatory infiltrate in brain, testis and kidney ([4]; ZIKV-inoculated and mock-infected mice with novobiocin): no or mild inflammatory infiltrate; Clinical tolerability [5]: generally well tolerated clinically; IC50 [6]: 38.1 ± 4.53 µg/mL (≈ 62.3 µM); IC50 (ZIKV [7]; Zika virus, Vero cells): 15.21 ± 0.14 µg/mL (≈ 24.8 µM); Plaque reduction (ZIKV [7]; at concentrations ≥50.00 μg/ml): 100%; IC50 (ZIKV [8]): 53.3 ± 2.48 µg/mL (≈ 86.9 µM); CC50 at 24 h [9]: 1100 µg/mL (≈ 1800 µM)
